Experiment [1] concerns the target T1, human SLC6A19 and TMEM27 (Homo sapiens, UniProt Q695T7).
T1 construct: expressed in transfected cells
T1 sequence (Q695T7 1-634): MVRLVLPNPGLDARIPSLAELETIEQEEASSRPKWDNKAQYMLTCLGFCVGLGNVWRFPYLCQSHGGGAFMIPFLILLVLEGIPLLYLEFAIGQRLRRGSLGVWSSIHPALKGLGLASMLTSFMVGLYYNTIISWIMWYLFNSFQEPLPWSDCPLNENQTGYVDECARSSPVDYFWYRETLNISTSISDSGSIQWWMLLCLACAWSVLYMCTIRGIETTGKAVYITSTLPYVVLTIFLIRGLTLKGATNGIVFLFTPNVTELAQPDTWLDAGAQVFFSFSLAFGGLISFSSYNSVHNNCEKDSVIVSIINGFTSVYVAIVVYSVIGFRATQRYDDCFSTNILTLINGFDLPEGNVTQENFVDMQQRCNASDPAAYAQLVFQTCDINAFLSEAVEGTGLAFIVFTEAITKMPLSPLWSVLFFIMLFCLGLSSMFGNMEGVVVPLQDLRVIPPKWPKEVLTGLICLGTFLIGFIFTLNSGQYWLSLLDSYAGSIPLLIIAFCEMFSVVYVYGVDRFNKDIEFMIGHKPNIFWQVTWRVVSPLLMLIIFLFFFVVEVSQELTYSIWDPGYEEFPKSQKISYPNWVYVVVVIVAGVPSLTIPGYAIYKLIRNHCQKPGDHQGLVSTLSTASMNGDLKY
T1 sequence (Q9HBJ8 15-222 partner): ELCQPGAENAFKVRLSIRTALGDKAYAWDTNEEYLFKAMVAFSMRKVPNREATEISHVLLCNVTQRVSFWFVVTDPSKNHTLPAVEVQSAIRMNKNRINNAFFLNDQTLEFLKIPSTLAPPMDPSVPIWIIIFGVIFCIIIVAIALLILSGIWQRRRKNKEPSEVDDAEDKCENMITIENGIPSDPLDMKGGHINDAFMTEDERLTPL
In words: Radiolabelled (3H) leucine uptake in CHO cells with doxycycline-inducible expression of human SLC6A19 and TMEM27 (Example B-1). It is filed as cell-based. The conditions noted are these: CHO cells with doxycycline-inducible expression of human SLC6A19 and TMEM27, read-out: SLC6A19_Radioligand Uptake Assay IC50. The method, boiled down:
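CHO cells were induced with doxycycline for 18 h at 37 °C, washed in HBSS, then exposed to compounds for 1 h: 8-point, 3-fold dilutions in duplicate, 0.5% DMSO final. Uptake measured by scintillation counting after 2 h shaking. Activity normalized with positive control as 0% and DMSO as 100%.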

Experiment [2] concerns the target T1, human SLC6A19 and TMEM27. In words: 13C6,15N-isoleucine uptake in CHO cells with doxycycline-inducible expression of human SLC6A19 and TMEM27, RapidFire mass spectrometry (Example B-2). It is filed as cell-based. The conditions noted are these: read-out: SLC6A19_RapidFire Uptake Assay IC50. The method, boiled down: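 Read-out is RapidFire mass-spec peak area of 13C6,15N-isoleucine taken up over 20 min at 37 °C, after 20 min compound pre-exposure in pH 7.2 HEPES-buffered saline. Cells: doxycycline-induced CHO co-expressing human SLC6A19 and TMEM27; compounds as duplicate 10-point 2-fold dilutions, positive control setting 0% activity.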

The source of these data is patent publication US20240199546A1, “INHIBITORS OF SOLUTE CARRIER FAMILY 6A MEMBER 19 (SLC6A19) AND METHODS OF USE THEREOF” (Maze Therapeutics, Inc., priority 2022, published 2024).

Molecules are shown by their SMILES. Where a name gives a salt, the structure may show the parent alone.

On to `Cc1cnc(COc2cc3[nH]c(CNC(=O)C4(C)CC4)cc3cc2Cl)o1` [Compound 70, N-((5-chloro-6-((5-methyloxazol-2-yl)methoxy)-1H-indol-2-yl)methyl)-1-methylcyclopropane-1-carboxamide], for which the IC50 on human SLC6A19 and TMEM27 [1] was 117 nM; at human SLC6A19 and TMEM27 [2] it was 62 nM.
Consider `CC1(C(=O)NCc2cc3ccc(CCc4cscn4)cc3[nH]2)CC1` [Compound 76, 1-methyl-N-((6-(2-(thiazol-4-yl)ethyl)-1H-indol-2-yl)methyl)cyclopropane-1-carboxamide], for which the concentration for half-maximal inhibition (IC50) is 100 nM on human SLC6A19 and TMEM27 [1]; 34 nM at human SLC6A19 and TMEM27 [2].
In the case of `O=C(NCc1cc2cc(Cl)c(OCc3cscn3)cc2[nH]1)N1CCC1` [Compound 81, N-((5-chloro-6-(thiazol-4-ylmethoxy)-1H-indol-2-yl)methyl)azetidine-1-carboxamide], the IC50 amounted to 150 nM at human SLC6A19 and TMEM27 [1]; 166 nM at human SLC6A19 and TMEM27 [2].
As for `O=C(NCc1cc2cc(Cl)c(OCc3cscn3)cc2[nH]1)N1CCCC1` [Compound 82, N-((5-chloro-6-(thiazol-4-ylmethoxy)-1H-indol-2-yl)methyl)pyrrolidine-1-carboxamide], the IC50 at human SLC6A19 and TMEM27 [1] was found to be 149 nM; on human SLC6A19 and TMEM27 [2] it was 45 nM.
The matching figures for `Cc1cc(COc2cc3[nH]c(CNC(=O)N4CCCC4)cc3cc2Cl)on1` [Compound 83, N-((5-chloro-6-((3-methylisoxazol-5-yl)methoxy)-1H-indol-2-yl)methyl)pyrrolidine-1-carboxamide]: 100 nM and 50 nM.
For `CC1CCCN1C(=O)NCc1cc2cc(F)c(OCc3ccon3)cc2[nH]1` (stereo not drawn) [Compound 90, N-((5-fluoro-6-(isoxazol-3-ylmethoxy)-1H-indol-2-yl)methyl)-2-methylpyrrolidine-1-carboxamide], the IC50 was 870 nM on human SLC6A19 and TMEM27 [1]; 1200 nM at human SLC6A19 and TMEM27 [2].
Regarding `CC1(C(=O)NCc2cc3cc(Cl)c(OCc4cc(C(F)F)on4)cc3[nH]2)CC1` [Compound 96, N-((5-chloro-6-((5-(difluoromethyl)isoxazol-3-yl)methoxy)-1H-indol-2-yl)methyl)-1-methylcyclopropane-1-carboxamide], the IC50 stood at 261 nM on human SLC6A19 and TMEM27 [1]; 354 nM at human SLC6A19 and TMEM27 [2].
Consider `CC1(C(=O)NCc2cc3ccc(OCc4cc(C(F)F)on4)cc3[nH]2)CC1` [Compound 97, N-((6-((5-(difluoromethyl)isoxazol-3-yl)methoxy)-1H-indol-2-yl)methyl)-1-methylcyclopropane-1-carboxamide], for which the IC50 on human SLC6A19 and TMEM27 [1] stood at 421 nM; at human SLC6A19 and TMEM27 [2] it was 909 nM.
Regarding `CC1(C(=O)NCc2cc3ccc(OCc4cccnc4F)cc3[nH]2)CC1` [Compound 98, N-((6-((2-fluoropyridin-3-yl)methoxy)-1H-indol-2-yl)methyl)-1-methylcyclopropane-1-carboxamide formate], the IC50 on human SLC6A19 and TMEM27 [1] is 210 nM; at human SLC6A19 and TMEM27 [2], 274 nM.
For the compound `Cc1cc(CCOc2cc3[nH]c(CNC(=O)C4(C)CC4)cc3cc2Cl)no1` [Compound 99, N-((5-chloro-6-(2-(5-methylisoxazol-3-yl)ethoxy)-1H-indol-2-yl)methyl)-1-methylcyclopropane-1-carboxamide], the 50% inhibitory concentration (IC50) stood at 158 nM at human SLC6A19 and TMEM27 [1]; 81 nM on human SLC6A19 and TMEM27 [2].
As for `CC1(C(=O)NCc2cc3cc(Cl)c(OCc4cc(C5CC5)on4)cc3[nH]2)CC1` [Compound 100, N-((5-chloro-6-((5-cyclopropylisoxazol-3-yl)methoxy)-1H-indol-2-yl)methyl)-1-methylcyclopropane-1-carboxamide], the 50% inhibitory concentration (IC50) at human SLC6A19 and TMEM27 [1] was determined as 201 nM; at human SLC6A19 and TMEM27 [2] it was 397 nM.
Take `O=C(NCc1cc2cc(Cl)c(OCc3cocn3)cc2[nH]1)N1CCCC1` [Compound 113, N-((5-chloro-6-(oxazol-4-ylmethoxy)-1H-indol-2-yl)methyl)pyrrolidine-1-carboxamide]: the IC50 on human SLC6A19 and TMEM27 [1] amounted to 284 nM; on human SLC6A19 and TMEM27 [2] it was 174 nM.
With `O=C(NCc1cc2cc(F)c(OCc3cscn3)cc2[nH]1)N1CCCC1` [Compound 114, N-((5-fluoro-6-(thiazol-4-ylmethoxy)-1H-indol-2-yl)methyl)pyrrolidine-1-carboxamide], the IC50 at human SLC6A19 and TMEM27 [1] came to 184 nM; at human SLC6A19 and TMEM27 [2], 158 nM.
As for `CC1CCN(C(=O)NCc2cc3ccc(OCc4ccon4)cc3[nH]2)C1` (stereo not drawn) [Compound 121, N-((6-(isoxazol-3-ylmethoxy)-1H-indol-2-yl)methyl)-3-methylpyrrolidine-1-carboxamide], the concentration for half-maximal inhibition (IC50) stood at 282 nM on human SLC6A19 and TMEM27 [1]; 590 nM on human SLC6A19 and TMEM27 [2].
The matching figures for `O=C(NCc1cc2ccc(OCc3ccon3)cc2[nH]1)N1CCC1` [Compound 122, N-((6-(isoxazol-3-ylmethoxy)-1H-indol-2-yl)methyl)azetidine-1-carboxamide]: 360 nM and 783 nM.
Turning to `O=C(NCc1cc2ccc(OCc3ccon3)cc2[nH]1)N1CCCCC1` [Compound 123, N-((6-(isoxazol-3-ylmethoxy)-1H-indol-2-yl)methyl)piperidine-1-carboxamide], the half-maximal inhibitory concentration (IC50) on human SLC6A19 and TMEM27 [1] is 340 nM; at human SLC6A19 and TMEM27 [2] it was 576 nM.
Consider `CC1CCCN1C(=O)NCc1cc2ccc(OCc3ccon3)cc2[nH]1` (stereo not drawn) [Compound 124, N-((6-(isoxazol-3-ylmethoxy)-1H-indol-2-yl)methyl)-2-methylpyrrolidine-1-carboxamide], for which the IC50 on human SLC6A19 and TMEM27 [1] is 450 nM; at human SLC6A19 and TMEM27 [2], 1320 nM.
On to `Cc1cc(COc2cc3[nH]c(CNC(=O)C4(C(F)(F)F)CC4)cc3cc2Cl)no1` [Compound 125, N-((5-chloro-6-((5-methylisoxazol-3-yl)methoxy)-1H-indol-2-yl)methyl)-1-(trifluoromethyl)cyclopropane-1-carboxamide], for which the 50% inhibitory concentration (IC50) stood at 198 nM at human SLC6A19 and TMEM27 [1]; 145 nM on human SLC6A19 and TMEM27 [2].
In the case of `CCC(=O)NCc1cc2cc(F)c(OCc3cscn3)cc2[nH]1` [Compound 126, N-((5-fluoro-6-(thiazol-4-ylmethoxy)-1H-indol-2-yl)methyl)propionamide], the IC50 on human SLC6A19 and TMEM27 [1] amounted to 97 nM; on human SLC6A19 and TMEM27 [2], 171 nM.
The matching figures for `CCC(=O)NCc1cc2cc(Cl)c(OCc3cc(C)on3)cc2[nH]1` [Compound 128, N-((5-chloro-6-((5-methylisoxazol-3-yl)methoxy)-1H-indol-2-yl)methyl)propionamide]: 70 nM and 32 nM.
As for `CCC(=O)NCc1cc2cc(Cl)c(OCc3ccon3)cc2[nH]1` [Compound 129, N-((5-chloro-6-(isoxazol-3-ylmethoxy)-1H-indol-2-yl)methyl)propionamide], the IC50 at human SLC6A19 and TMEM27 [1] was 80 nM; at human SLC6A19 and TMEM27 [2], 44 nM.
Take `Cc1cc(COc2cc3[nH]c(CNC(=O)C(C)C)cc3cc2Cl)no1` [Compound 130, N-((5-chloro-6-((5-methylisoxazol-3-yl)methoxy)-1H-indol-2-yl)methyl)isobutyramide]: the IC50 at human SLC6A19 and TMEM27 [1] is 85 nM; on human SLC6A19 and TMEM27 [2], 65 nM.
The matching figures for `O=C(NCc1cc2cc(Cl)c(OCc3ccon3)cc2[nH]1)C1CC1` [Compound 131, N-((5-chloro-6-(isoxazol-3-ylmethoxy)-1H-indol-2-yl)methyl)cyclopropanecarboxamide]: 74 nM and 50 nM.
Turning to `CC(C)C(=O)NCc1cc2cc(Cl)c(OCc3ccon3)cc2[nH]1` [Compound 132, N-((5-chloro-6-(isoxazol-3-ylmethoxy)-1H-indol-2-yl)methyl)isobutyramide], the IC50 at human SLC6A19 and TMEM27 [1] was 136 nM; on human SLC6A19 and TMEM27 [2] it was 103 nM.
The matching figures for `Cc1cc(COc2cc3[nH]c(CNC(=O)C4CC4)cc3cc2Cl)no1` [Compound 133, N-((5-chloro-6-((5-methylisoxazol-3-yl)methoxy)-1H-indol-2-yl)methyl)cyclopropanecarboxamide]: 82 nM and 45 nM.
The matching figures for `O=C(NCc1cc2cc(Cl)c(OCc3ccon3)cc2[nH]1)C1(C(F)(F)F)CC1` [Compound 134, N-((5-chloro-6-(isoxazol-3-ylmethoxy)-1H-indol-2-yl)methyl)-1-(trifluoromethyl)cyclopropane-1-carboxamide]: 187 nM and 84 nM.
Turning to `CC(C)C(=O)NCc1cc2cc(F)c(OCc3cscn3)cc2[nH]1` [Compound 135, N-((5-fluoro-6-(thiazol-4-ylmethoxy)-1H-indol-2-yl)methyl)isobutyramide], the IC50 at human SLC6A19 and TMEM27 [1] stood at 82 nM; on human SLC6A19 and TMEM27 [2], 49 nM.
